The record followed here is patent US5998654A, “Retinoic acid receptor antagonist compounds and methods” (Ligand Pharmaceuticals Incorporated, priority 1997, dated 1999).

As usually defined, the pEC50 is −log10 of the EC50, conventionally taken in molar units.

One experiment has as its target T1, RARγ (Homo sapiens, UniProt P13631).
T1 sequence (P13631 1-454): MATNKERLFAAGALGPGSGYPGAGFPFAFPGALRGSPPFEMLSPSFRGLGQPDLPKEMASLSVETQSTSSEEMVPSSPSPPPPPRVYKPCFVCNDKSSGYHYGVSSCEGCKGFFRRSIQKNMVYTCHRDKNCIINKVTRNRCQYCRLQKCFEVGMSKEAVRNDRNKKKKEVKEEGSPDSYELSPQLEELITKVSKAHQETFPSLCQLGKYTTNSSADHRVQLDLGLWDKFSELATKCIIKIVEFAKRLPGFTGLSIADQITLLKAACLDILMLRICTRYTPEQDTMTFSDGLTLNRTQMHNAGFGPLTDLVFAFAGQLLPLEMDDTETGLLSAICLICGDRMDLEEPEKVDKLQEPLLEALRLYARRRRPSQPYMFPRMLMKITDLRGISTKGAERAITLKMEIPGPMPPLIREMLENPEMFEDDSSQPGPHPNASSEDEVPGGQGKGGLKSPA
Put plainly: co-transfection assay, agonist activity on RARγ. The experiment is classed as cell-based. Set-up: expressed in transfected cells; host or cells: CV-1 cells (African green monkey kidney). Conditions: CV-1 cells; read-out: EC50 agonist potency, RARγ. The source says:
(§1) This assay is described in further detail in U.S. Pat. Nos. 4,981,784 and 5,071,773, the disclosures of which are incorporated herein by reference.
(§2) In the co-transfection assay, a cloned cDNA for an IR (e.g., human RARα:, RARβ, RXRγ) under the control of a constitutive promoter (e.g., the SV 40 promoter) is introduced by transfection (a procedure to induce cells to take up foreign genes) into a background cell substantially devoid of endogenous IRs. This introduced gene directs the recipient cells to make the IR protein of interest. A second gene is also introduced (co-transfected) into the same cells in conjunction with the IR gene. This second gene, comprising the cDNA for a reporter protein, such as firefly luciferase (LUC), is controlled by an appropriate hormone responsive promoter containing a hormone response element (HRE). This reporter plasmid functions as a reporter for the transcription-modulating activity of the target IR. Thus, the reporter acts as a surrogate for the products (mRNA then protein) normally expressed by a gene under control of the target receptor and its native hormone.
(§3) The co-transfection assay can detect small molecule agonists or antagonists of target IRs. Exposing the transfected cells to an agonist ligand compound increases reporter activity in the transfected cells. This activity can be conveniently measured, e.g., by increasing luciferase production, which reflects compound-dependent, IR-mediated increases in reporter transcription. To detect antagonists, the co-transfection assay is carried out in the presence of a constant concentration of an agonist to the target IR (e.g., all-trans retinoic acid for RARα) known to induce a defined reporter signal. Increasing concentrations of a suspected antagonist will decrease the reporter signal (e.g., luciferase production). The co-transfection assay is therefore useful to detect both agonists and antagonists of specific IRs. Furthermore, it determines not only whether a compound interacts with a particular IR, but whether this interaction mimics (agonizes) or blocks (antagonizes) the effects of the native regulatory molecules on target gene expression, as well as the specificity and strength of this interaction.
(§4) CV-1 cells (African green monkey kidney fibroblasts) were cultured in the presence of Dulbecco's Modified Eagle Medium (DMEM) supplemented with 10% charcoal resin-stripped fetal bovine serum then transferred to 96-well microtiter plates one day prior to transfection. […]

In another experiment the target is T2, RARβ (Homo sapiens, UniProt P10826).
T2 sequence (P10826 1-448 isoform P10826-2): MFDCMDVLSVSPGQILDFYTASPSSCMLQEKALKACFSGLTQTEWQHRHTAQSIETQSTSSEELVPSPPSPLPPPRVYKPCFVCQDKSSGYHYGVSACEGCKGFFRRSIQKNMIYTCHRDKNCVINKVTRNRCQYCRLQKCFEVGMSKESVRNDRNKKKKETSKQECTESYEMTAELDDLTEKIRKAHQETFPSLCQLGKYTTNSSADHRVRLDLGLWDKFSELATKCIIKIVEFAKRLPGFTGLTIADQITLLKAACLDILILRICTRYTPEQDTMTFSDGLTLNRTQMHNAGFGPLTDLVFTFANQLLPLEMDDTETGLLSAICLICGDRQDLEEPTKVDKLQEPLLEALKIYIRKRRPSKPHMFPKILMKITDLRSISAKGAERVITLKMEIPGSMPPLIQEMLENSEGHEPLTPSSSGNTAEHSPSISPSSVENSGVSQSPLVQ
Put plainly: co-transfection assay, agonist activity on RARβ. The following applies: CV-1 cells; read-out: EC50 agonist potency, RARβ. On the set-up: expressed in transfected cells; host or cells: CV-1 cells (African green monkey kidney). In kind it is cell-based.
Source text: as §1, §2, §3, §4

pEC50: −log10 of the molar value.

Turning to `CCCCOc1c(C(C)(C)C)cc(/C(C)=C/C=C/C(C)=C/C(=O)O)cc1C(C)(C)C` [Compound 7, 2E, 4E, 6E-[7-(3,5-Di-t-butyl-4-n-butoxyphenyl)-3-methyl]-octa-2,4,6-trienoic acid], the pEC50 at RARγ and on RARβ was under 5.00 each time.

Consider `CCCOc1c(C(C)(C)C)cc(/C(C)=C/C=C/C(C)=C/C(=O)O)cc1C(C)(C)C` [Compound 8, 2E, 4E, 6E-[7-(3,5-Di-t-butyl-4-n-propoxyphenyl)-3-methyl]-octa-2,4,6-trienoic acid], for which the pEC50 at RARγ and on RARβ was under 5.00 throughout.

On to `CCCCCOc1c(C(C)(C)C)cc(/C(C)=C/C=C/C(C)=C/C(=O)O)cc1C(C)(C)C` [Compound 9, 2E, 4E, 6E-[7-(3,5-Di-t-butyl-4-n-pentoxyphenyl)-3-methyl]-octa-2,4,6-trienoic acid], for which the pEC50 at RARγ and on RARβ was under 5.00 throughout.

As to `C=C(c1ccccc1)c1cc(/C(C)=C/C=C/C(C)=C/C(=O)O)cc(C(C)(C)C)c1` [Compound 17, (2E,4E,6E)-7-[3-t-butyl-5-(1-phenyl-vinyl)-phenyl]-3-methyl-octa-2,4,6-trienoic acid], the pEC50 on RARγ and on RARβ was under 5.00 throughout.
